Experiments:
Assay type in all cases: biochemical
Settings in all cases: Table 6; enzyme inhibition data (Ki)
[1] = target: ROCK I (Homo sapiens, UniProt Q13464); test: ROCK-I inhibition assay (radioactive enzyme assay, MBP substrate)
How it was run: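 Human ROCK at 5 nM phosphorylated 27 μM myelin basic protein with 13 μM [γ-33P]ATP (final) in HEPES pH 7.5, MgCl2, NaCl, DTT and 1.5% DMSO. Reactions ran 2 h at room temperature before TCA quench and filter-plate scintillation counting. After background subtraction, data were fit to give Ki(app).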

[2] = target: JAK2 (Homo sapiens, UniProt O60674); test: JAK2 inhibition assay (as Example 3 with JAK-2 enzyme)
Sequence of JAK2 (O60674 whole entry): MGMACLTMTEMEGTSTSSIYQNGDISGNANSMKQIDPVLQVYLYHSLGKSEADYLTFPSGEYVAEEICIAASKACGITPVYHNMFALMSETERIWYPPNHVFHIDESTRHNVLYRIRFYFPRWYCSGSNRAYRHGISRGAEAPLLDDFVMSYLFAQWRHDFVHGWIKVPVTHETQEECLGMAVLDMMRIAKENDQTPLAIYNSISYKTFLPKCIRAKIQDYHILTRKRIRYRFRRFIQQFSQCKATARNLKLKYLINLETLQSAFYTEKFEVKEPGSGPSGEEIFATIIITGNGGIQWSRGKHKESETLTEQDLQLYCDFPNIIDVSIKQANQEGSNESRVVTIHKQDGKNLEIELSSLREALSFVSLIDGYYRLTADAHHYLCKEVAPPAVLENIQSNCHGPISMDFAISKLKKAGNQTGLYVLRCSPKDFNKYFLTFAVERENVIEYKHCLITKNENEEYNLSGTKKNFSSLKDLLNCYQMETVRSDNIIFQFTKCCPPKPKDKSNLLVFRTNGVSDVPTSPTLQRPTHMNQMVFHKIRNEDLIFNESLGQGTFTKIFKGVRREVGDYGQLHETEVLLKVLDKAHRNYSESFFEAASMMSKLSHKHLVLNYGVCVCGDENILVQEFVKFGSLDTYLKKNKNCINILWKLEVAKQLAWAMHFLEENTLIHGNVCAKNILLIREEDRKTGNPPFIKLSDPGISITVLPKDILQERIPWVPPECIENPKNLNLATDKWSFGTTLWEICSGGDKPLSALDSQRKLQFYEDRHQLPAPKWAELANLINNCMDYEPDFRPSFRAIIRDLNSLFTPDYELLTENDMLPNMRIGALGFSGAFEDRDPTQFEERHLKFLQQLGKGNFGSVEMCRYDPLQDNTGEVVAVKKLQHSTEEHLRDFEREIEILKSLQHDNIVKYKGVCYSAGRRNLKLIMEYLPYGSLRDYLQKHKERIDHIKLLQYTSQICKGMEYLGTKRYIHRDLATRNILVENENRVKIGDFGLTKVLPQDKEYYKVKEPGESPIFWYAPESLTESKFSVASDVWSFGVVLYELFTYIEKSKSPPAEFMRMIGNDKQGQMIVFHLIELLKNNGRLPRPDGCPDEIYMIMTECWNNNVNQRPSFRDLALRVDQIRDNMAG
How it was run: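 Radiometric JAK2 kinase assay: poly(Glu)4Tyr substrate at final 15 μM, ATP at final 12 μM with [33P]; buffer 100 mM HEPES pH 7.4, 1 mM DTT, 10 mM MgCl2, 25 mM NaCl, 0.01% BSA. 20 min at 25 °C, TCA-stopped, 33P incorporation counted after filter capture.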

[3] = target: T1, JAK3 (Homo sapiens, UniProt P52333); test: JAK3 inhibition assay (33P incorporation into poly(Glu)4Tyr)
T1 sequence (P52333 1-1124): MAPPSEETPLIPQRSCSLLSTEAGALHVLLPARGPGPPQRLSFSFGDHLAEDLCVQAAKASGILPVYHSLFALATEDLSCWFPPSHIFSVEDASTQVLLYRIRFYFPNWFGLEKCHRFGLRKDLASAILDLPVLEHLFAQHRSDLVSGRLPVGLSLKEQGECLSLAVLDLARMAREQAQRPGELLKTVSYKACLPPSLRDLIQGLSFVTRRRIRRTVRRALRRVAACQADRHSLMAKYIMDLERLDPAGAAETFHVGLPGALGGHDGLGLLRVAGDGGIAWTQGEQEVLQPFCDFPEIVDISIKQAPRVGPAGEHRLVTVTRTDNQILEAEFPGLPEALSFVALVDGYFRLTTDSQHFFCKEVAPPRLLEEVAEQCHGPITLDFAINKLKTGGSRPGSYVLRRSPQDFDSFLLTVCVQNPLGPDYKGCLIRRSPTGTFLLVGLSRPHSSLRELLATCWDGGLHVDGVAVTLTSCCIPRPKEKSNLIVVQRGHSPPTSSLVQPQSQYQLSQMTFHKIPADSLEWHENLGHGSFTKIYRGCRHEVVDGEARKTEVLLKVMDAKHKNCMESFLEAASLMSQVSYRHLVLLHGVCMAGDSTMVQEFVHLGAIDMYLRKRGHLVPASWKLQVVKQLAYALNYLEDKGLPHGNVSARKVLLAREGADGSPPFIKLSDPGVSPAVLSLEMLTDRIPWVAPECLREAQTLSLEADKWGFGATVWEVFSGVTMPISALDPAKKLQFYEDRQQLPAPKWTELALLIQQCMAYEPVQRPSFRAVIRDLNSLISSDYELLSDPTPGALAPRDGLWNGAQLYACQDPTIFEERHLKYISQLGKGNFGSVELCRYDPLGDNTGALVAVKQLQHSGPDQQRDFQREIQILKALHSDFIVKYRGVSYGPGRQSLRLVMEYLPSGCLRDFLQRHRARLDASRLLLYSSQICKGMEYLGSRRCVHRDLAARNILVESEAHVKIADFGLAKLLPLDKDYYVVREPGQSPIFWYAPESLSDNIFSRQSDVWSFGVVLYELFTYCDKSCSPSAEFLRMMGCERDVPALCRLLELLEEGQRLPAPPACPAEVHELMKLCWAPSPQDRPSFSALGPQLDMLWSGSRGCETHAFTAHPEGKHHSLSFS
How it was run: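 Human JAK3 at 1 nM phosphorylated 1 μM poly(Glu)4Tyr using 5 μM [33P]ATP in HEPES pH 7.4 buffer with MgCl2, DTT and BSA. Reactions ran 20 min at 25° C. and were stopped with TCA. 33P incorporation was measured by scintillation after glass-fiber filter capture.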

Sequence of ROCK I (Q13464 whole entry): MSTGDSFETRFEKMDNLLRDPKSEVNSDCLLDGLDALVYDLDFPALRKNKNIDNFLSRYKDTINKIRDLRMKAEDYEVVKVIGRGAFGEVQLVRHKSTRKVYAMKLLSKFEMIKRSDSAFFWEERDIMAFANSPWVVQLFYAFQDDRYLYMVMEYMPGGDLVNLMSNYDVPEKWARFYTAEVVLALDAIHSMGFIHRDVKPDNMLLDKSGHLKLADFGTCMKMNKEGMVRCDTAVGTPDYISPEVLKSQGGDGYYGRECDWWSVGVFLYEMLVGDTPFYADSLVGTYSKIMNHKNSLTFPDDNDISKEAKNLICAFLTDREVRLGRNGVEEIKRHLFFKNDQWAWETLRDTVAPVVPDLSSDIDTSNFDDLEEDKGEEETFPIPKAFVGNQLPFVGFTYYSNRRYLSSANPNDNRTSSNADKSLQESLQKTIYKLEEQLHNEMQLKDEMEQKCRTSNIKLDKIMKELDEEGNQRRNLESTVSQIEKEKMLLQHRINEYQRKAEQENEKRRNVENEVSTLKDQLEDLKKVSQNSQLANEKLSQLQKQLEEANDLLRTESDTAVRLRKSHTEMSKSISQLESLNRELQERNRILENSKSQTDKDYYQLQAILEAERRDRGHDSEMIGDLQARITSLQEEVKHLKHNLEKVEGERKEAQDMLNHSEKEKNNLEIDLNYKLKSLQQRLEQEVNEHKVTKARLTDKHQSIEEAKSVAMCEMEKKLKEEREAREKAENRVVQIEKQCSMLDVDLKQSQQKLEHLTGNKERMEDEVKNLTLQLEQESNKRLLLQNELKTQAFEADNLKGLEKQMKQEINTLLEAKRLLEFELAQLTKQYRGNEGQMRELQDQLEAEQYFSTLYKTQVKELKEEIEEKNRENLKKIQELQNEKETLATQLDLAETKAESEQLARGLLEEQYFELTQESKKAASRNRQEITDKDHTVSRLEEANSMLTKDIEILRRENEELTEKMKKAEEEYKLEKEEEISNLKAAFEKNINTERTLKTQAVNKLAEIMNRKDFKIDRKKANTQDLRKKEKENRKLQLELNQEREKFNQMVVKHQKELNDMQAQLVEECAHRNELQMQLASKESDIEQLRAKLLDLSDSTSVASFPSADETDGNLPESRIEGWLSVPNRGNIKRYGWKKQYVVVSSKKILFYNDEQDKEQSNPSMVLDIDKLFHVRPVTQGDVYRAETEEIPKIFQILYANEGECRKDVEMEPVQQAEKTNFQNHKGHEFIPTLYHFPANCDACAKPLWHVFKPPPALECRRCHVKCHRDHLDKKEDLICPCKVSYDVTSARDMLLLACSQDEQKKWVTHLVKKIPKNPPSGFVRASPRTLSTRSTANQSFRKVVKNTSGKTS

SMILES | Ki [1] [µM] | Ki [2] [nM] | Ki [3] [nM]
CCC(=O)N1CCCC(Nc2c(Cl)cnc3[nH]ccc23)C1 (stereo not drawn) [compound 175] | > 4 | < 500 | < 500
CCC(=O)N1CC[C@@H](Nc2c(Cl)cnc3[nH]ccc23)C1 [compound 176] | 0.5 to 5 | < 500 | < 500
O=S(=O)(C1CC1)N1CC[C@H](Nc2c(Cl)cnc3[nH]ccc23)C1 [compound 179] | > 4 | < 500 | < 500
CCCS(=O)(=O)N1CC[C@@H](Nc2c(Cl)cnc3[nH]ccc23)C1 [compound 180] | > 4 | < 500 | < 500
O=S(=O)(C1CC1)N1CC[C@@H](Nc2c(Cl)cnc3[nH]ccc23)C1 [compound 183] | > 4 | < 500 | < 500
O=C(CC(F)(F)F)N1CC[C@H](Nc2c(Cl)cnc3[nH]ccc23)C1 [compound 187] | 0.5 to 5 | < 500 | < 500
N#CCC(=O)N1CCCC(Nc2c(Cl)cnc3[nH]ccc23)C1 (stereo not drawn) [compound 188] | 0.5 to 5 | < 500 | < 500
O=C(CC(F)(F)F)N1CC[C@@H](Nc2c(Cl)cnc3[nH]ccc23)C1 [compound 189] | > 4 | < 500 | 500 to 5000
N#CCC(=O)N1CC[C@@H](Nc2c(Cl)cnc3[nH]ccc23)C1 [compound 190] | 0.5 to 5 | < 500 | < 500
N#CCC(=O)N1CC[C@H](Nc2c(Cl)cnc3[nH]ccc23)C1 [compound 191] | > 4 | < 500 | < 500
O=C(CNc1nc(-c2ccnc3[nH]ccc23)ncc1F)NCC(F)(F)F [compound 192] | > 4 | 500 to 5000 | < 500
CC(C)(C)C(=O)Nc1ncccc1-c1ccnc2[nH]ccc12 [compound 194] | > 4 | > 5000 | > 5000
Nc1ncccc1-c1ccnc2[nH]ccc12 [compound 195] | > 4 | > 5000 | > 5000
O=C(CCNc1nc(-c2ccnc3[nH]ccc23)nc2ccccc12)NCC(F)(F)F [compound 197] | > 4 | 500 to 5000 | 500 to 5000

Results, then the compound that gave them:

Ki [1] [µM] | Ki [2] [nM] | Ki [3] [nM] | SMILES
0.5 to 5 | < 500 | < 500 | CCCOC(=O)N1CCCC(Nc2c(Cl)cnc3[nH]ccc23)C1 (stereo not drawn) [compound 174]
0.5 to 5 | < 500 | < 500 | CCCS(=O)(=O)N1CCCC(Nc2c(Cl)cnc3[nH]ccc23)C1 (stereo not drawn) [compound 177]
> 4 | < 500 | < 500 | CCCS(=O)(=O)N1CC[C@H](Nc2c(Cl)cnc3[nH]ccc23)C1 [compound 178]
0.5 to 5 | < 500 | < 500 | O=S(=O)(C1CC1)N1CCCC(Nc2c(Cl)cnc3[nH]ccc23)C1 (stereo not drawn) [compound 181]
0.5 to 5 | < 500 | < 500 | CS(=O)(=O)N1CCCC(Nc2c(Cl)cnc3[nH]ccc23)C1 (stereo not drawn) [compound 182]
0.5 to 5 | < 500 | < 500 | CS(=O)(=O)N1CC[C@@H](Nc2c(Cl)cnc3[nH]ccc23)C1 [compound 184]
> 4 | < 500 | < 500 | CS(=O)(=O)N1CC[C@H](Nc2c(Cl)cnc3[nH]ccc23)C1 [compound 185]
0.5 to 5 | < 500 | < 500 | O=C(CC(F)(F)F)N1CCCC(Nc2c(Cl)cnc3[nH]ccc23)C1 (stereo not drawn) [compound 186]
> 4 | 500 to 5000 | 500 to 5000 | O=C(CCNc1nc(-c2ccnc3[nH]ccc23)ncc1F)NCC(F)(F)F [compound 193]
> 4 | 500 to 5000 | 500 to 5000 | O=C(CNc1nc(-c2ccnc3[nH]ccc23)nc2ccccc12)NCC(F)(F)F [compound 196]
> 4 | 500 to 5000 | 500 to 5000 | O=C(NCC(F)(F)F)[C@H]1CCCN1c1nc(-c2ccnc3[nH]ccc23)ncc1F [compound 198]

Reference: patent publication US8921376B2, “Pyrrolopyridines useful as inhibitors of protein kinase” (Vertex Pharmaceuticals Incorporated, priority 2005, dated 2014)
